Data as given in ChEMBL document CHEMBL1765027, “5'-Modified pyrimidine nucleosides as inhibitors of ribonuclease A” (Bioorg Med Chem, 2011).
Activity calls are given as the source filed them. The calls are words filed in the database; no cut-off is given here.

Experiments:
[1] = biological target: T1, Ribonuclease pancreatic (Bos taurus, UniProt P61823); test: Inhibition of bovine pancreatic RNase A using 2',3'-cCMP as a substrate by Lineweaver-Burk analysis
T1 sequence (P61823 whole entry): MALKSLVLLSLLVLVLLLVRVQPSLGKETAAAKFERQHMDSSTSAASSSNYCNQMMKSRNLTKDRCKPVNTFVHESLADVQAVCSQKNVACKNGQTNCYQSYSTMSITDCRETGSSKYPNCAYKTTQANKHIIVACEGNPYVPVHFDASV

[2] = biological target: T1, Ribonuclease pancreatic; test: Inhibition of bovine pancreatic RNase A using 2',3'-cCMP as a substrate by Dixon plot analysis
[3] = biological target: T2, Ribonuclease pancreatic (Bos taurus) (UniProt P61823); test: Inhibition of bovine pancreatic RNase A-mediated degradation of yeast tRNA assessed as residual tRNA band at 0.18 mM preincubated for 3 hrs measured after 30 mins of addition of tRNA using ethidium bromide staining by agarose gel based assay
T2 sequence (whole entry): T1 sequence (P61823 whole entry)

[4] = biological target: T2, Ribonuclease pancreatic (Bos taurus); test: Inhibition of bovine pancreatic RNase A ribonucleolytic activity assessed as reduction of yeast tRNA degradation at 0.27 mM preincubated for 2 hrs by precipitation assay
[5] = biological target: T2, Ribonuclease pancreatic (Bos taurus); test: Inhibition of bovine pancreatic RNase A-mediated degradation of yeast tRNA assessed as residual tRNA band at 0.27 mM preincubated for 3 hrs measured after 30 mins of addition of tRNA using ethidium bromide staining by agarose gel based assay
[6] = biological target: T2, Ribonuclease pancreatic (Bos taurus); test: Inhibition of bovine pancreatic RNase A-mediated degradation of yeast tRNA assessed as residual tRNA band at 0.09 mM preincubated for 3 hrs measured after 30 mins of addition of tRNA using ethidium bromide staining by agarose gel based assay
[7] = biological target: T1, Ribonuclease pancreatic; test: Inhibition of bovine pancreatic RNase A at pH 5.9 by spectrophotometric method

SMILES	Ki [1] [µM]	Ki [2] [µM]	Activity [3]	inhibition [4] [%]	Activity [5]	Activity [6]	Ki [7] [nM]
O=C(O)C1CCN(C[C@H]2O[C@@H](n3ccc(=O)[nH]c3=O)[C@H](O)[C@@H]2O)CC1	75	61	Active	37	Active	Active	
Nc1ncnc2c1ncn2[C@@H]1O[C@H](CO)[C@@H](OP(=O)(O)OC[C@H]2O[C@@H](n3ccc(=O)[nH]c3=O)C[C@@H]2OP(=O)(O)OP(=O)(O)O)[C@H]1O							27
Cc1cn([C@H]2C=C[C@@H](CN3CCC(C(=O)O)CC3)O2)c(=O)[nH]c1=O	250		Active	14	Active	Active	

The remaining lines, values ahead:

Ki [1] [µM]	Ki [2] [µM]	Activity [3]	inhibition [4] [%]	Activity [5]	Activity [6]	Ki [7] [nM]	SMILES
229	183	Active	18	Active	Active		Cc1cn([C@H]2C[C@@H](O)[C@@H](CN3CCC(C(=O)O)CC3)O2)c(=O)[nH]c1=O
162	121	Active	23	Active	Active		Cc1cn([C@H]2C[C@H](O)[C@@H](CN3CCC(C(=O)O)CC3)O2)c(=O)[nH]c1=O
